Data taken from US6897316B2, “Substituted 2-phenyl-4-quinolone-3-carboxylic acid compounds and their use as antitumor agents” (China Medical University, priority 2003, dated 2005).
Converted amounts (≈) assume the structure as drawn.

Key:
Type in all cases: cell-based, human
Details in all cases: mean ED50
[1] = system: Renal cancer (CAKI) cell line; assay: Activity against HTCL replication, CAKI
Method: (§1) Compounds were assayed for in vitro cytotoxicity in a panel of human tumor cell lines at the School of Pharmacy, University of North Carolina at Chapel Hill, according to procedures described previously [Lee, K. H., Lin, Y. M., Wu, T. S., Zhang, D. C., Yamagishi, T., Hayashi, T., Hall, I. H., Chang, J. J., Wu, R. Y., Yang, T. H. The cytotoxic principles of Prunella vulgaris, Psychotria serpens, and Hyptis capitata: Ursolic acid and related derivatives. Planta Med. 1988, 54, 308-11; Boyd, M. R. Status of the National Cancer Institute preclinical antitumor drug discovery screen: implications for selection of new agents for clinical trial. Devita, V. T., Jr. Hellman, S., Rosenberg, S. A., Eds, J. B. Cancer: Principles and Practice of Oncology Update, 1989, 3: pp1-12, Lippincoft: Philadephia; Monks, A., Scudiero, D., Skehan, P., Shoemaker, R., Paull, K., Vistica, D., Hose, C., Langley, J., Cronise, P., Vaigro-Wolff, A., Gray-Goodrich, M., Campbell, H., Mayo, J., Boyd, M. Feasibility of a high-flux anticancer drug screen using a diverse panel of cultured human tumor cell lines. J. Natl. Cancer Inst. 1991, 83, 757-66.] […]

[2] = system: epidermoid carcinoma of the nasopharynx (KB) cell line; assay: Activity against HTCL replication, KB
Method: as §1

[3] = system: melanoma (SK-MEL-2) cell line; assay: Activity against HTCL replication, SK-MEL-2
Method: as §1

Structure (SMILES): COc1ccc2[nH]c(-c3cccc(F)c3)c(C(=O)O)c(=O)c2c1 [IX-8, 3′-Fluoro-6-methoxy-2-phenyl-4-quinolone-3-carboxylic acid]
- ED50 CAKI [1]: 10.0 µg/mL (≈ 31.9 µM)
- ED50 KB [2]: 0.13 µg/mL (≈ 0.415 µM)
- ED50 SK-MEL-2 [3]: 0.16 µg/mL (≈ 0.511 µM)
